# Measurements: BindingDB's records for patent US20240092770 (Recursion Pharmaceuticals, 2024)
# Molecular target: T1, RNA-binding protein 39 [150-331]/DDB1- and CUL4-associated factor 15 (Homo sapiens, UniProt Q14498+Q66K64)
# T1 construct: 150-331
# Test: TR-FRET Assay
# Experimental: A TR-FRET assay was used to assess the effect of compounds disclosed herein on the interaction between RBM39 and the DCAF15 complex. Test compounds were dissolved to form a 10 mM DMSO stock solution. A 45 μL aliquot of the stock solution was transferred to a 384 pp-plate, and a threefold, 8-point dilution was performed via transferring 15 μL compound solution into 30 μL of DMSO. The plates were then spun at room temperature at 1,000 RPM for 1 minute. A 30 nL aliquot of the diluted compound was transferred to a 384 well plate, which was incubated at room temperature for 15 minutes. Next, Solutions 1, 2, and 3 were prepared as described in the below tables. A 5 μL aliquot of Solution 2 was added to each well, followed by 5 μL of Solution 3 to start the reaction. The final volume of each well was 10 μL. The plates were incubated at room temperature for 60 minutes, and then read.
# T1 sequence (Q66K64 whole entry): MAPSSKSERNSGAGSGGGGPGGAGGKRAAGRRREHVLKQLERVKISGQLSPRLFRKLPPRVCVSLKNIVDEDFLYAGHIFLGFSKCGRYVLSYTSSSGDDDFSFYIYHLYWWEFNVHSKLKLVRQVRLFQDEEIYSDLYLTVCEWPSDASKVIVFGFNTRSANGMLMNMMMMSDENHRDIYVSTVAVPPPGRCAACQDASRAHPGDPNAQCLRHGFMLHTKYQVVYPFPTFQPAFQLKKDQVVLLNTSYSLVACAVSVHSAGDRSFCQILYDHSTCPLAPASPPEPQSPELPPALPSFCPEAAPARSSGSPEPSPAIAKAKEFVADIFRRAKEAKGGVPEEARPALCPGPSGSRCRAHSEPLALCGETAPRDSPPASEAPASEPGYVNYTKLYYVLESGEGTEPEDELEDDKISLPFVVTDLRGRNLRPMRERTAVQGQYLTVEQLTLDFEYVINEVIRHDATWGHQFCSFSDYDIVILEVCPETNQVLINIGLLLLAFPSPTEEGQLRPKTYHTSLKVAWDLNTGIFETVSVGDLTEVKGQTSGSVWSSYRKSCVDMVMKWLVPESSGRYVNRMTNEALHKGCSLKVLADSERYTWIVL
# T1 sequence (Q14498 150-331): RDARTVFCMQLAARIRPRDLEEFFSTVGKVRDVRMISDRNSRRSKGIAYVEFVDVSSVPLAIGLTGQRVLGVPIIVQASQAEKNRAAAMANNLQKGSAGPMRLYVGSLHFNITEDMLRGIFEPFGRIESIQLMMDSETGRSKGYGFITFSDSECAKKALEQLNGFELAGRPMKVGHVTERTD
compound,measurement,value
"Cc1ccc(NS(=O)(=O)c2ncc(C(F)(F)F)s2)c2[nH]cc(C#N)c12 [US20240092770, Compound 25]",EC50,1090 nM
